Reference: patent US20240165151A1, “COMPOSITIONS AND METHODS FOR TREATING UPPER RESPIRATORY INFECTIONS” (priority 2020, published 2024)
Where two headings read alike, the source gives them in different places. Marks after values point to notes of the source that are not given here.

What was measured:
SARS-CoV-2 [1] = type: cell-based; settings: for Virus CCID50 per well ± SD: 22±2°C, average of 3 replicates; for LRV (log reduction value): compared to the virus control
influenza virus = settings: cited from earlier work
SARS-CoV-2 [2] = settings: cited from earlier work

For `CCO` [EtOH (63%), Ethanol], the “Virus CCID50 per well ± SD” value (SARS-CoV-2 [1]; contact time 2 minutes) was <1.7**** log CCID50 per 0.1 mL, the “LRV (log reduction value)” value (SARS-CoV-2 [1]; contact time 2 minutes) was >2.2 log10 and the “Virus CCID50 per well ± SD” value (SARS-CoV-2 [1]; contact time 10 minutes) was <1.7**** log CCID50 per 0.1 mL. For the same compound, the “LRV (log reduction value)” value (SARS-CoV-2 [1]; contact time 10 minutes) was >2.2 log10 and the cytotoxicity in culture (Vero 76 cells) was “cytotoxic”.
In the case of `CCOC(=O)C1=C[C@@H](OC(CC)CC)[C@H](NC(C)=O)[C@@H](N)C1` [Oseltamivir], the “influenza RNA concentration decrease” value (influenza virus; on day 2) is given as −1.19 log10 copies/mL and the “influenza RNA concentration decrease” value (influenza virus; on day 4) is given as −0.68 log10 copies/mL.
For “LY-CoV555: SARS-CoV-2 neutralizing antibody”, the “relative SARS-CoV-2 RNA decrease versus placebo” value (SARS-CoV-2 [2]; day 3) is listed as −0.64 log10 copies/mL and the “relative SARS-CoV-2 RNA decrease versus placebo” value (SARS-CoV-2 [2]; day 7) is listed as −0.45 log10 copies/mL.
